In PubChem BioAssay AID720512 (Broad Institute, 2013):
Active and inactive are the calls of the source. No rule for the calls is given here.

These molecules were tested against Toxin B (TcdB) glycohydrolase, Clostridioides difficile 630 (assay: TcdB glycohydrolase inhibitors, dose response, biochemical, cherry-pick, plate reader (AID 720512)). Settings: recombinant TcdB glycohydrolase activity.

SMILES | AC50
CN1c2ccc(-c3ccccc3)cc2[C@@H]2[C@@H](CCN2C(=O)CN2CCOCC2)[C@@H]1CO | > 39 µM (inactive)
CCCNC(=O)C[C@H]1CC[C@@H]2[C@@H](COc3ccc(NC(=O)c4ccc5c(c4)OCO5)cc3C(=O)N2C)O1 | > 39 µM (inactive)
O=c1[nH]c(/C=C\c2ccc(O)c(Cl)c2)nc(O)c1[N+](=O)[O-] | > 39 µM (inactive)
Cc1cccc(NC(=O)c2ccc(N3CCOCC3)c([N+](=O)[O-])c2)n1 | > 39 µM (inactive)
Oc1ccc(Nc2nc(Cl)nc(NCc3ccco3)n2)cc1 | 21.7 µM
CN1c2ccc(-c3ccccc3)cc2[C@H]2[C@H](CCN2C(=O)CN2CCOCC2)[C@H]1CO | > 39 µM (inactive)
Oc1ccc(Cc2ccccc2Cl)c(O)c1 | > 39 µM (inactive)
CC(=O)N/C(=C\c1ccccc1)C(=O)Nc1ccc(O)cc1 | > 39 µM (inactive)
O=C(NC(=S)Nc1ccc(N2CCOCC2)cc1)c1ccccc1 | > 39 µM (inactive)

Same assay, conditions: recombinant TcdB glycohydrolase activity, at 19.5 µM (top of the series)

SMILES | activity change, negative = inhibition
S=c1[nH]nc2ccccn12 | inactive
C/C(=N\NC(=O)CSc1nc2ccccc2c(=O)n1-c1ccccc1C)c1cccs1 | inactive
CNC(=O)C[C@H]1CC[C@@H]2[C@@H](COc3ccc(NC(=O)c4cccc(OC)c4)cc3C(=O)N2C)O1 | inactive
CCOc1ccc(NC(=O)c2ccc(CC)s2)c([N+](=O)[O-])c1 | inactive
NNC(=O)CNC(=O)Nc1n[nH]c(=S)s1 | inactive
C/C(=N\NC(=O)c1ccccc1O)c1cccc(NC(=O)c2ccccc2)c1 | inactive
CNC(=O)N(O)C1N(/N=C/c2cccs2)C(=S)SC1(C)C (configuration not stated) | inactive
Cc1[nH]ccc2c1[nH]c1cc(=O)ccc12 | inactive
Cc1ccc(/C=C(\C#N)C(=O)Nc2ccccn2)o1 | inactive
Cn1cc(C(CO)Cc2ccccc2)c2ccccc21 (configuration not stated) | inactive
O=C(NCc1cccnc1)c1cc(C2CCCCN2S(=O)(=O)c2cccc3cccnc23)on1 (configuration not stated) | inactive
COC(=O)C[C@H]1CC[C@@H]2[C@@H](COc3ccc(NC(=O)c4ccc(OC)cc4)cc3C(=O)N2C)O1 | inactive
O=C1Nc2ccccc2C1c1ncc(C(F)(F)F)cc1Cl (configuration not stated) | inactive
NC(=O)c1ccc(NC(=O)CSc2nnc(C3CC3)n2C2CC2)cc1 | inactive
Cc1c(O)ccc(NC(=O)/C=C/c2ccccc2)c1C | inactive
Cc1ccc(C(=O)Nc2ccc(O)cc2C(=O)O)cc1C | inactive
COc1ccccc1-c1cn[nH]c1-c1ccc(O)cc1O | inactive
CCCCN(C)c1c(C)nc2ccc(C(=O)NCc3cccs3)cn12 | inactive
OCC[C@H]1C[C@H](O)[C@@H](O)[C@@]2(Cc3ccccc3CO2)O1 | inactive
O=C(O)c1cccnc1SCc1ccccc1Cl | inactive
COc1ccccc1Nc1nnc(SCc2cc(=O)n3ccsc3n2)s1 | inactive
CCC(=Nc1ccccc1)C1=C(O)CCCC1=O | inactive
Nc1ccc(Sc2ccc(N)cc2)cc1 | inactive
CCCCn1c(N)c(N(CC)C(=O)c2cccs2)c(=O)[nH]c1=O | inactive

SMILES | activity change, negative = inhibition
CCOC(=O)c1sc(=S)[nH]c1C | inactive
CSc1ccc(/C=N/N2CCN(Cc3ccc(Cl)cc3)CC2)cc1 | inactive
Cc1ccc(C2=NS(=O)(=O)N(C)C(C(=O)NCc3ccc4c(c3)OCO4)=C2)cc1 | inactive
NC(=O)CC(NC(=O)c1ccccc1)c1ccc(NCCc2ccc(F)cc2)c([N+](=O)[O-])c1 (configuration not stated) | inactive
CCCCc1[nH]c(=O)c(C#N)c2c1CCCC2 | inactive
COC(=O)C[C@@H]1CC[C@@H]2[C@H](COC[C@H](O)CN2C(=O)Nc2ccccc2OC)O1 | inactive
CC[C@H](C)[C@@H]1NC(=O)c2cc([N+](=O)[O-])cc(I)c2NCC[C@@H](C(N)=O)NC(=O)[C@H](CCCN=C(N)N)NC1=O | inactive
FC(F)(F)c1cc(Cl)c2nc(-c3ccccc3)c(Cc3ccsc3)n2c1 | inactive
COC(=O)Cc1ccc(NC(=S)NCc2ccc(OC)cc2)cc1 | inactive
Nc1nc(Cl)cc(NCCc2ccc(O)cc2)n1 | inactive
O=[N+]([O-])c1c(Nc2ccccc2O)ccc2nonc12 | inactive
CCCNC(=O)C1(C)CCCN(C(=O)c2ccccc2OC(F)(F)F)C1 (configuration not stated) | inactive
Cn1cc(S(=O)(=O)CC(=O)N2CCCc3ccccc32)c2ccccc21 | inactive
Cc1cnc(C(=O)OCC(=O)N2C(C)CCCC2C)cn1 (configuration not stated) | inactive
COc1cc(/C=N/NC(=O)C2COc3ccccc3O2)ccc1O (configuration not stated) | inactive
NS(=O)(=O)c1ccc(NC(=S)NCc2ccc3c(c2)OCO3)cc1 | inactive
COc1nc(C)cc(C)c1S(=O)(=O)c1ccc(Cl)cc1 | inactive
O=c1[nH]nc(-c2cc(-c3ccccc3)nc3ccccc23)o1 | inactive
CNC(=O)C1CCN(S(=O)(=O)c2c(C)noc2/C=C/c2ccc(C)cc2)CC1 | inactive
O=S(=O)(NC1CCCCCCC1)c1ccc(F)cc1 | inactive
COCc1c(Br)c(C)nc(OCC(=O)N/N=C/c2ccc(C)o2)c1C#N | inactive
O=C(O)c1c(C(=O)O)c(-c2ccc(Br)cc2)n2c1CSC2 | inactive
Cc1nc(S(=O)(=O)N(C)Cc2ccccc2)c(C#N)c(C)c1Cl | inactive
O=C(C[C@H]1C[C@@H]2c3cc(NC(=O)c4ccc5c(c4)OCO5)ccc3O[C@@H]2[C@@H](CO)O1)NCc1cccc(F)c1 | inactive

SMILES | activity change, negative = inhibition
O=C(NC(=S)Nc1ccc(O)cc1)c1ccccc1Cl | inactive
CCCCn1c(CN2CCN(C(=O)c3ccco3)CC2)nc2c1c(=O)n(C)c(=O)n2C | inactive
Cc1cccc(/C=C/c2onc(C)c2S(=O)(=O)N2CCC(C(=O)N3CCC(C)CC3)CC2)c1 | inactive
Cc1noc(C)c1NC(=O)N(C)C[C@@H]1Oc2ccc(NC(=O)C3CCCCC3)cc2C(=O)N([C@@H](C)CO)C[C@H]1C | inactive
COc1c2ccc(C(=O)NCCCCc3ccccc3)cc2nn1C | inactive
O=C(NNc1nc2c(F)cccc2s1)C1COc2ccccc2O1 (configuration not stated) | inactive
O=C(c1ccc(N2CCOCC2)c([N+](=O)[O-])c1)N1CCN(c2ccccc2F)CC1 | inactive
COc1cc(/C=C/C(=O)c2ccc([N+](=O)[O-])o2)ccc1O | inactive
COc1ccc(/C=C/c2nc3ccccc3n2C)cc1 | inactive
COc1ccccc1-n1c(CCC(=O)O)ccc1-c1ccccc1 | inactive
O=C(C[C@@H]1CC[C@@H]2[C@H](COC[C@@H](O)CN2C(=O)c2ccccn2)O1)NC1CCC1 | inactive
CNC(=O)C1CCN(S(=O)(=O)c2c(C)noc2/C=C/c2cccc(OC)c2)CC1 | inactive
NS(=O)(=O)c1ccc(CCNC(=O)c2ccc(CS(=O)(=O)c3ccc(Br)cc3)o2)cc1 | inactive
Nc1nnn(CC(=O)N/N=C/c2ccc(O)cc2)n1 | inactive
COc1ccc(C=NNC(=O)c2cc(C)oc2C)cc1O | inactive
Cc1ccc(C2=NS(=O)(=O)N(C)C(C(=O)NCc3ccccc3)=C2)cc1 | inactive
COc1ccc(CNC(=O)Cc2cn(C)c3ccccc23)c(OC)c1 | inactive
CC(C)Cc1nnc(NC(=O)CCC(=O)NCc2ccccc2Cl)s1 | inactive
CCOC(=O)N1CCN=C1SCc1ccc(Cl)c(Cl)c1 | inactive
COc1ccc(NC(=O)C2CC(=O)N(c3ccccc3F)C2)cc1S(=O)(=O)N1CCCCC1 (configuration not stated) | inactive
CC(=O)C[C@H]1c2ccccc2S(=O)(=O)N1C1CCCCC1 | inactive
COc1ccc(Cl)cc1-n1c(=S)sc2c(=O)n(-c3ccc(F)cc3)c(SCC(=O)O)nc21 | inactive
Cn1c(SCc2nnc(-c3ccccc3)o2)nc2ccccc21 | inactive
CC1(C)CCC/C(=C\c2ccccc2)C1=O | inactive

Same assay, conditions: recombinant TcdB glycohydrolase activity, at 21 µM (top of the series)

SMILES | activity change, negative = inhibition
CN(C)CC(=O)N1CC[C@@H]2[C@H]1c1cc(-c3ccccc3)ccc1N(C)[C@H]2CO | inactive
